# According to ChEMBL document CHEMBL4610023, “An amide-based sulfenamide prodrug of gamma secretase inhibitor BMS-708163 delivers parent drug from an oral conventional solid dosage form in male beagle dog” (Bioorg Med Chem Lett, 2020):
# Key:
# [1] = Chemical stability of compound in aqueous solution assessed as half life at 100 ug/ml and pH 7.4; assay type: physicochemical
# [2] = Aqueous solubility of compound at pH 6.5; assay type: physicochemical; conditions: aqueous solution
# [3] = Chemical stability of compound in aqueous solution assessed as half life at 100 ug/ml and pH 1; assay type: physicochemical
# [4] = Aqueous solubility of compound at pH 2; assay type: physicochemical; conditions: aqueous solution
# [5] = Chemical stability of compound in aqueous solution assessed as half life at 100 ug/ml and pH 4; assay type: physicochemical
# [6] = Tmax in Beagle dog at 3 mg/kg, po; assay type: ADME, organism-based, Canis lupus familiaris; conditions: in vivo
# [7] = AUC (0 to 24 hrs) in Beagle dog at 3 mg/kg, po; assay type: ADME, organism-based, Canis lupus familiaris; design: time < 24 hr, dose 3 mg/kg, route oral; conditions: in vivo
# [8] = Drug concentration in Beagle dog plasma at 3 mg/kg, po measured at 24 hrs; assay type: ADME, organism-based, Canis lupus familiaris
# [9] = Cmax in Beagle dog at 3 mg/kg, po; assay type: ADME, organism-based, Canis lupus familiaris; design: dose 3 mg/kg, route oral; conditions: in vivo
# [10] = Oral bioavailability in Beagle dog at 3 mg/kg; assay type: ADME, organism-based, Canis lupus familiaris; conditions: in vivo
half-life at 100 ug/ml [1] [days],solubility [2] [µg/mL],half-life at 100 ug/ml [3] [days],solubility [4] [µg/mL],half-life at 100 ug/ml [5] [days],Tmax [6] [h],AUC(0-t) at 24 h [7] [µM·h],concentration at 24 h [8] [nM],Cmax [9] [nM],bioavailability [10] [%],Compound
11.2,< 1,> 20.8,< 1,> 20.8,,,,,,O=C(NSc1ccccc1)[C@@H](CCC(F)(F)F)N(Cc1ccc(-c2ncon2)cc1F)S(=O)(=O)c1ccc(Cl)cc1
8.21,< 1,> 20.8,< 1,> 20.8,,,,,,N#CCCSNC(=O)[C@@H](CCC(F)(F)F)N(Cc1ccc(-c2ncon2)cc1F)S(=O)(=O)c1ccc(Cl)cc1
,< 1,,,,1 to 2,5.25 to 14.6,98 to 442,881 to 1150,,NC(=O)[C@@H](CCC(F)(F)F)N(Cc1ccc(-c2ncon2)cc1F)S(=O)(=O)c1ccc(Cl)cc1 [AVAGACESTAT]
0.958,10,> 20.8,4300,10.8,,,,,,CCOC(=O)[C@@H](N)CSNC(=O)[C@@H](CCC(F)(F)F)N(Cc1ccc(-c2ncon2)cc1F)S(=O)(=O)c1ccc(Cl)cc1
2.17,321,> 20.8,> 10000,> 20.8,,,,,,NCCSNC(=O)[C@@H](CCC(F)(F)F)N(Cc1ccc(-c2ncon2)cc1F)S(=O)(=O)c1ccc(Cl)cc1
0.625,21,> 20.8,3900,7.71,2,6.03 to 15.8,90 to 474,707 to 1170,107 to 115,COC(=O)[C@@H](N)CSNC(=O)[C@@H](CCC(F)(F)F)N(Cc1ccc(-c2ncon2)cc1F)S(=O)(=O)c1ccc(Cl)cc1
3,260,> 20.8,510,17.4,,,,,,N[C@@H](CSNC(=O)[C@@H](CCC(F)(F)F)N(Cc1ccc(-c2ncon2)cc1F)S(=O)(=O)c1ccc(Cl)cc1)C(=O)O
